In BigSolDB 2.1:

For `CC(=O)Nc1ccc(O)cc1`, which solubility (mole fraction) (in ethanol, 293.15 K) is on record?
Its solubility (mole fraction) is 0.0505.

What about the solubility (mole fraction) (in ethanol, 298.15 K) of the same compound?
The solubility (mole fraction) was 0.0546.

What about the solubility (mole fraction) (in ethanol, 303.15 K) of the same compound?
Its solubility (mole fraction) is 0.062.

And the solubility (mole fraction) (in ethanol, 308.15 K)?
The solubility (mole fraction) was 0.067.

And the solubility (mole fraction) (in ethanol, 313.15 K)?
Its solubility (mole fraction) is 0.0705.

And the solubility (mole fraction) (in propylene glycol, 293.15 K)?
Its solubility (mole fraction) is 0.0483.

And the solubility (mole fraction) (in propylene glycol, 298.15 K)?
The solubility (mole fraction) was 0.0516.

And the solubility (mole fraction) (in propylene glycol, 303.15 K)?
Its solubility (mole fraction) is 0.0603.

And the solubility (mole fraction) (in propylene glycol, 308.15 K)?
The solubility (mole fraction) was 0.0664.

What about the solubility (mole fraction) (in propylene glycol, 313.15 K) of the same compound?
Its solubility (mole fraction) is 0.0752.
